This note sets out measurements from ChEMBL document CHEMBL5465560, “Selectivity Literature for EUbOPEN Chemogenomic Library” (2024).

For experiment [1], the target named is Serine/threonine-protein kinase 26 (Homo sapiens, UniProt Q9P289). Kind of experiment: Selectivity interaction (Ambit KINOMEscan and KiNATiv profiling in Jurkat cells) EUB0000090b STK26. Format: cell-based. The following applies: at 1 µM.
In experiment [2] the test system is Tyrosine-protein kinase ABL1 (Homo sapiens), P00519 [H396P]. Particulars: at 10 µM.
Experiment [3] has as its target T1, Activin receptor type-1 (Homo sapiens) (UniProt Q04771).
T1 sequence (whole entry): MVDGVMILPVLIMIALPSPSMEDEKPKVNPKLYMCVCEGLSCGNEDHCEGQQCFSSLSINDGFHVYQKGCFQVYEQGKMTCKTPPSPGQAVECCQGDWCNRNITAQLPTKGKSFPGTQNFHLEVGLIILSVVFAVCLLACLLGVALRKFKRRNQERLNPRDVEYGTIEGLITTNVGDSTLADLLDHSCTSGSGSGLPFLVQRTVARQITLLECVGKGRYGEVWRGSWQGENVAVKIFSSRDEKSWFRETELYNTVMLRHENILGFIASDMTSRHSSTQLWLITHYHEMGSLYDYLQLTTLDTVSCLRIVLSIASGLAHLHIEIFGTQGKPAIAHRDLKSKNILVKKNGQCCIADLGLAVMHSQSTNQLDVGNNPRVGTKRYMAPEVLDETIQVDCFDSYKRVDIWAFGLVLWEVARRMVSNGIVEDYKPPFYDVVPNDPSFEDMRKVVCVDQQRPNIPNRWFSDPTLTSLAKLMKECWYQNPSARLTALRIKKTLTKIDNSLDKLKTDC
Kind of experiment: Selectivity interaction (KinomeScan (DiscoverX)) EUB0000666a ACVR1. Particulars: at 10 µM.

Experiment [4] deals with Serine/threonine-protein kinase pim-3 (Homo sapiens) (UniProt Q86V86). Kind of experiment: Selectivity interaction (KinomeScan (DiscoverX)) EUB0000666a PIM3. Particulars: at 10 µM.
Experiment [5] deals with Ribosomal protein S6 kinase alpha-2 (Homo sapiens) (UniProt Q15349). Put plainly: Selectivity interaction (KinomeScan (DiscoverX)) EUB0000666a RPS6KA2. Particulars: at 10 µM.
The target of experiment [6] is Ribosomal protein S6 kinase alpha-6 (Homo sapiens, UniProt Q9UK32). Kind of experiment: Selectivity interaction (KinomeScan (DiscoverX)) EUB0000666a RPS6KA6. The following applies: at 10 µM.
Experiment [7] deals with Histone-lysine N-methyltransferase 2A (Homo sapiens) (UniProt Q03164). The following applies: at 1 µM.
The target in experiment [8] is T2, Phosphatidylinositol 5-phosphate 4-kinase type-2 gamma (Homo sapiens) (UniProt Q8TBX8).
T2 sequence (whole entry): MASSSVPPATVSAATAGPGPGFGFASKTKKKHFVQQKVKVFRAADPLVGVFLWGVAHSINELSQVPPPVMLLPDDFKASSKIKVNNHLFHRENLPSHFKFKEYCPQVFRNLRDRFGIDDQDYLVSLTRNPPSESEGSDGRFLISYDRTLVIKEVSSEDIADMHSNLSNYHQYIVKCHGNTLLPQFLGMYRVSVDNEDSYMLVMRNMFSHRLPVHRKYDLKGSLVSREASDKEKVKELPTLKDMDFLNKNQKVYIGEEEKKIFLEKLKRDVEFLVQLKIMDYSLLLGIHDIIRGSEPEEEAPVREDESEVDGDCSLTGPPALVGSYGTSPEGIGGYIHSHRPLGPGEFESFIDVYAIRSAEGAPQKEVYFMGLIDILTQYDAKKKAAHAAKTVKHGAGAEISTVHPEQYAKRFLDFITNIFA
Put plainly: Selectivity interaction (ActivX KiNativ screen (ex vivo kinase selectivity in human PBMCs)) EUB0001619a PIP4K2C. The experiment is classed as cell-based. Particulars: PBMC, at 1 µM.

The target in experiment [9] is Calcium/calmodulin-dependent protein kinase kinase 2 (Homo sapiens) (UniProt Q96RR4). Put plainly: Selectivity interaction (ActivX KiNativ screen (kinase selectivity in THP-1 cell lysates)) EUB0000639a CAMKK2. The experiment is classed as subcellular. Particulars: lysate.
The target of experiment [10] is Cyclin-dependent kinase 2 (Homo sapiens, UniProt P24941). Put plainly: Selectivity interaction (ActivX KiNativ screen (kinase selectivity in THP-1 cell lysates)) EUB0000639a CDK2. The experiment is classed as subcellular. The following applies: lysate.
Experiment [11] deals with Vascular endothelial growth factor receptor 1 (Homo sapiens) (UniProt P17948). Put plainly: Selectivity interaction (Kinase panel (Invitrogen)) EUB0000639a FLT1. Particulars: at 200 nM.
Experiment [12] addresses Serine/threonine-protein kinase pim-3 (Homo sapiens) (UniProt Q86V86). Kind of experiment: Selectivity interaction (KinomeScan (DiscoverX)) EUB0000045b PIM3.
The target in experiment [13] is T3, Serine/threonine-protein kinase Sgk3 (Homo sapiens) (UniProt Q96BR1).
T3 sequence (whole entry): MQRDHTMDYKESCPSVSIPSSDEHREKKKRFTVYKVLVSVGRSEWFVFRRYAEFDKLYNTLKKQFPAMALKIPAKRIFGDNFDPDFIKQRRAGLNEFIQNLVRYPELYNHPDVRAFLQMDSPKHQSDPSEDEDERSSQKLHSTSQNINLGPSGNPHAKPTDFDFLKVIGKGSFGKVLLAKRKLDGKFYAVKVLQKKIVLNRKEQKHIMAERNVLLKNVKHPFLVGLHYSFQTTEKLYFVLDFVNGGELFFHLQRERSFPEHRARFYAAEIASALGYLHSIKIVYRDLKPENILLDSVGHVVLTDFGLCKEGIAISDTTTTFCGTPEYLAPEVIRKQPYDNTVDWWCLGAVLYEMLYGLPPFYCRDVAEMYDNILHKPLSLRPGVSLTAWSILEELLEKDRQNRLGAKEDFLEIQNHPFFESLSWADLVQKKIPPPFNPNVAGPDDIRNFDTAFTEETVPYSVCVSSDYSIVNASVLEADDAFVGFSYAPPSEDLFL
Kind of experiment: Selectivity interaction (KinomeScan (DiscoverX)) EUB0000045b SGK3.

Calcium/calmodulin-dependent protein kinase kinase 2 (Homo sapiens), sequence (Q96RR4 2-588 limits assumed): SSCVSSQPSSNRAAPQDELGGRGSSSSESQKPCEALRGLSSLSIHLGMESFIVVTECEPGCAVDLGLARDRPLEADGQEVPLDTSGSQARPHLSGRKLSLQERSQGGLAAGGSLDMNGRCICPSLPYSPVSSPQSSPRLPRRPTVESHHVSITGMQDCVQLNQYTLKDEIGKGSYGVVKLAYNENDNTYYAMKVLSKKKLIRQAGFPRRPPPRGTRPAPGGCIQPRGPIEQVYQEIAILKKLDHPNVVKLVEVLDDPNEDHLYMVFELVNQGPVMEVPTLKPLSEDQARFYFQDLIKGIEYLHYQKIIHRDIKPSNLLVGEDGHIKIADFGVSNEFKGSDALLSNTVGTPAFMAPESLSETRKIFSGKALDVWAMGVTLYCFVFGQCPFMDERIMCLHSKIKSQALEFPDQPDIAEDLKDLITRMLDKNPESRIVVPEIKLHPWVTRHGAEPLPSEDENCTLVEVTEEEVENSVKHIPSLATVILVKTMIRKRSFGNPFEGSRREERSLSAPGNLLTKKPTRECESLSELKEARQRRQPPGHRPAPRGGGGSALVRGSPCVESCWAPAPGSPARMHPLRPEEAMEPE
Vascular endothelial growth factor receptor 1 (Homo sapiens), sequence (P17948 whole entry): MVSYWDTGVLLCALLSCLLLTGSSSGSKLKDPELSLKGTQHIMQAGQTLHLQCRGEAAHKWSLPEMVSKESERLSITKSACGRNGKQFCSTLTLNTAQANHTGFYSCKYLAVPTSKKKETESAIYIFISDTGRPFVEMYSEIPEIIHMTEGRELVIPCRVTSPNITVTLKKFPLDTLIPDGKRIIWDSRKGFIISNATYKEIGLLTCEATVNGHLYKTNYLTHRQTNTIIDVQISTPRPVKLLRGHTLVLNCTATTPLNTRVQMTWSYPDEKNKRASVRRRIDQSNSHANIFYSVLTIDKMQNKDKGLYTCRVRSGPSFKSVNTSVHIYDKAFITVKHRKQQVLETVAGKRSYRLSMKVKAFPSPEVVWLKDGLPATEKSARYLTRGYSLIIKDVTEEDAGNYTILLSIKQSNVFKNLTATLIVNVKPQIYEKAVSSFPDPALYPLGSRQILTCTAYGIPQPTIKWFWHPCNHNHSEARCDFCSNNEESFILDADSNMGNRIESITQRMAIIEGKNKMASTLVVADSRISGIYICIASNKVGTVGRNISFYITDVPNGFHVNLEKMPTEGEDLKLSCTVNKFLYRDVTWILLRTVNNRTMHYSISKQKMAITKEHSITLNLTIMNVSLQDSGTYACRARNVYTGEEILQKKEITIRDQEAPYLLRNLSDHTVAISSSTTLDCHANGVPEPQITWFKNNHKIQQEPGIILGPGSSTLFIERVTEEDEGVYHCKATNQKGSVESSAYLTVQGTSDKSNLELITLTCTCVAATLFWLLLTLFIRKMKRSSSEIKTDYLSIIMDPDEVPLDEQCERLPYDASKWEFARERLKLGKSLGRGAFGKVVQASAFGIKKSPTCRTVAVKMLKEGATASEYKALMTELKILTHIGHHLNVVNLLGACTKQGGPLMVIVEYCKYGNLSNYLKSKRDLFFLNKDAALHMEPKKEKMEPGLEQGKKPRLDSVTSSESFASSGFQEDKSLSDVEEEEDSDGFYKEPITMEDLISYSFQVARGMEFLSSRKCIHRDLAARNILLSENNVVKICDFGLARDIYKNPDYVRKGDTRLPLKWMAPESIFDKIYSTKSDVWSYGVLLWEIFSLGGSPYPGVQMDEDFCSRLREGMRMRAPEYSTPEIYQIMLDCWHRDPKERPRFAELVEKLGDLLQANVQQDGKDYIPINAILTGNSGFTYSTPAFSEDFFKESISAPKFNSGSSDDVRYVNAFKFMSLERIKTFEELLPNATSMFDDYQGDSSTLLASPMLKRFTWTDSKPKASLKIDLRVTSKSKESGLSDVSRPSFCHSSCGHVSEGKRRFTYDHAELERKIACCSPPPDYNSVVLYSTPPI
Ribosomal protein S6 kinase alpha-2 (Homo sapiens), sequence (Q15349 whole entry): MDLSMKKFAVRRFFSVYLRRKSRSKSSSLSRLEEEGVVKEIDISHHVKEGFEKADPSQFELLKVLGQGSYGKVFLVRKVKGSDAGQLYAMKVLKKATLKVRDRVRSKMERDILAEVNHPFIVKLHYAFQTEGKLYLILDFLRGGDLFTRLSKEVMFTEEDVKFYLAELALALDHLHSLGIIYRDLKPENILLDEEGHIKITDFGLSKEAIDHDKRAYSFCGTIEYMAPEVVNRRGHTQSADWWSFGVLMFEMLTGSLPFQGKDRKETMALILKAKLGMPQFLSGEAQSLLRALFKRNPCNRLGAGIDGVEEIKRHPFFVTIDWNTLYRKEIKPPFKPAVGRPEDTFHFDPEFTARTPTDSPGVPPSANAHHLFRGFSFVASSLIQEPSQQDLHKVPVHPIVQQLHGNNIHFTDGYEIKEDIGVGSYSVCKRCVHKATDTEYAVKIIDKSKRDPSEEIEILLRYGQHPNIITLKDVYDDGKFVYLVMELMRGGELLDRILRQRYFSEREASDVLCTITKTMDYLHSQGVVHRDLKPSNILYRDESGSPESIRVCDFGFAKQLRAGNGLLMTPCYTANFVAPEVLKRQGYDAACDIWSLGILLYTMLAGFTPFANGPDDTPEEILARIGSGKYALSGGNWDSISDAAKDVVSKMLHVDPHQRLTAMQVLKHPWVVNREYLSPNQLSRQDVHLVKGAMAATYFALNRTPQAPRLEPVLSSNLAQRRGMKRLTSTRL
Ribosomal protein S6 kinase alpha-6, sequence (Q9UK32 whole entry): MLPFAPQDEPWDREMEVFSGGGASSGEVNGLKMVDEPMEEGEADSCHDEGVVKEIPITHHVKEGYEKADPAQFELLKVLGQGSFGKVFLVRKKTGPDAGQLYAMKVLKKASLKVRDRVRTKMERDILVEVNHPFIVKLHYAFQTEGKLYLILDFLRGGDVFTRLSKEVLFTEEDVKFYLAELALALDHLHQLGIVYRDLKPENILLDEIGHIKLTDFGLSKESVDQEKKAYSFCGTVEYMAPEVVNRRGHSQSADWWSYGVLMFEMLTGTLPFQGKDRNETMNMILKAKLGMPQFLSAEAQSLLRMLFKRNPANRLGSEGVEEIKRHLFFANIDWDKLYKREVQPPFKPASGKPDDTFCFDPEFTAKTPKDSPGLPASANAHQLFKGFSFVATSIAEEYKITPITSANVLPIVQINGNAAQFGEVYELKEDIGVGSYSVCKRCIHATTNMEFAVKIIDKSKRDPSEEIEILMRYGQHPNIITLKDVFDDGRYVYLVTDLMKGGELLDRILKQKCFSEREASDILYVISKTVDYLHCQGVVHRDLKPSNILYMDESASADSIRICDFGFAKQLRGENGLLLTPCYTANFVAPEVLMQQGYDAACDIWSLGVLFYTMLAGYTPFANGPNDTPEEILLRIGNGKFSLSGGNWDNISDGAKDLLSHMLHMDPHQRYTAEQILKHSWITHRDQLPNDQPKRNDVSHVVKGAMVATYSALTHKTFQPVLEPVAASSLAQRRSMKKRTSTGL
Serine/threonine-protein kinase 26, sequence (Q9P289 2-416 limits assumed): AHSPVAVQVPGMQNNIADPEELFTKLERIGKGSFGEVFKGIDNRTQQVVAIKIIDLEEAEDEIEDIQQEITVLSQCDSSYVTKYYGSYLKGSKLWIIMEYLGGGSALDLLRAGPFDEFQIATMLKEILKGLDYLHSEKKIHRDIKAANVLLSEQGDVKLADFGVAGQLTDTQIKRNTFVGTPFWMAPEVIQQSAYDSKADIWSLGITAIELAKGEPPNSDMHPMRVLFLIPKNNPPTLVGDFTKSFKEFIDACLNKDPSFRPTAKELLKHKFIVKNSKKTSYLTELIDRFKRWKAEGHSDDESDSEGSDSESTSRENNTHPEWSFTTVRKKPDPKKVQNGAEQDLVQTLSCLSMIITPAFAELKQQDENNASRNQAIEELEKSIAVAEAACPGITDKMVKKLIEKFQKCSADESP

Compound `CN(C)C/C=C/C(=O)Nc1ccc(C(=O)N2CCCC(Nc3ncc(Cl)c(-c4c[nH]c5ccccc45)n3)C2)cc1` (stereo not drawn) displayed a % of control in experiment [1] of 88%.
`Cc1cc([C@@H](C)Nc2ccccc2C(=O)O)c2nc(N3CCOCC3)cc(=O)n2c1` [AZD-6482]: the % of control in [2] was found to be 87%.
In the case of `O=C(NOC[C@H](O)CO)c1ccc(F)c(F)c1Nc1ccc(I)cc1F`, the % of control in experiment [3] amounted to 76%; in experiment [4], 100%; in experiment [5], 100%; in [6], 75%.
Compound `CNCCN1CCC(c2cc(CN(C)C(=O)c3cccc(Oc4ccccc4)c3)ccn2)CC1` displayed a % activity in experiment [7] of more than 90%.
As to `N#Cc1cccc(-c2c[nH]c3ncnc(N4CCOCC4)c23)c1`, the % of inhibition in experiment [8] amounted to 54%.
`CC[C@@H]1[C@H](F)C(=O)N[C@@H]1COc1nccc2cc(C(N)=O)c(OC)cc12` [ZIMLOVISERTIB]: the % of inhibition stood at 5.1% in experiment [9] (at 0.01 µM); 9.8% in experiment [9] (at 0.04 µM); 8.1% in experiment [9] (at 0.2 µM); 37.6% in experiment [9] (at 1 µM); 63.5% in experiment [9] (at 5 µM); 1.9% in experiment [10] (at 0.01 µM). In addition, the % of inhibition was -4% in [10] (at 0.04 µM); 12.3% in experiment [10] (at 0.2 µM); -8.5% in [10] (at 1 µM); 6.3% in experiment [10] (at 5 µM); 3.08% in experiment [11].
As to `C=CC(=O)Nc1cc(-n2c(=O)ccc3cnc4ccc(-c5ccc(NS(C)(=O)=O)cc5)cc4c32)ccc1C`, the % of control in experiment [12] (at 1 µM) stood at 83%; in experiment [12] (at 10 µM), 82%; in experiment [13] (at 1 µM) it was 100%; in experiment [13] (at 10 µM), 100%.
